According to ChEMBL document CHEMBL3112589, “Structure-activity relationships of diamine inhibitors of cytochrome P450 (CYP) 3A as novel pharmacoenhancers, part I: core region” (Bioorg Med Chem Lett, 2014):
pEC50, pIC50: −log10 of the molar value.

Legend:
[1] = system: Human immunodeficiency virus 1; assay: Antiviral activity against HIV1 by cell based assay; type: functional, organism-based
Protease = Protease (Human immunodeficiency virus 1, UniProt Q9YQ12); assay: Inhibition of HIV-1 protease
Protease, sequence (Q9YQ12 whole entry): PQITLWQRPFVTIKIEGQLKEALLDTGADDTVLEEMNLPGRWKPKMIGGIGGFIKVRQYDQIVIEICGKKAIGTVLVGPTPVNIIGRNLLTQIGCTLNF

Cytochrome P450 2D6 = Cytochrome P450 2D6 (Homo sapiens, UniProt P10635); assay: Inhibition of human CYP2D6
Cytochrome P450 2D6, sequence (P10635 whole entry): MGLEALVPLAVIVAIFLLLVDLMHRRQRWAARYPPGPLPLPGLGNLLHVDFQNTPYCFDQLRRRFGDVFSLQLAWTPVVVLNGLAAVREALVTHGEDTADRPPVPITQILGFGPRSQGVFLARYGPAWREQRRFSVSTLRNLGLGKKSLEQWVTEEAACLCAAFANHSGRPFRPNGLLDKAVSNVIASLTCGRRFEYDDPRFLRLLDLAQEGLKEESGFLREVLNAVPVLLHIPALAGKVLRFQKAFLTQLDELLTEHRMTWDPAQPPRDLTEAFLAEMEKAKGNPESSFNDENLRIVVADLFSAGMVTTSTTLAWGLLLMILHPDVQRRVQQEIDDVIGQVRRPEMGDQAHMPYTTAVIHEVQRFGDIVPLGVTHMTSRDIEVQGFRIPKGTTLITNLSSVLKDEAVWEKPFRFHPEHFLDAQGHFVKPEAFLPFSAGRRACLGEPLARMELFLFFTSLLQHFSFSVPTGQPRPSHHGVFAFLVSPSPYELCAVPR

Cytochrome P450 2C19 = Cytochrome P450 2C19 (Homo sapiens, UniProt P33261); assay: Inhibition of human CYP2C19
Cytochrome P450 2C19, sequence (P33261 whole entry): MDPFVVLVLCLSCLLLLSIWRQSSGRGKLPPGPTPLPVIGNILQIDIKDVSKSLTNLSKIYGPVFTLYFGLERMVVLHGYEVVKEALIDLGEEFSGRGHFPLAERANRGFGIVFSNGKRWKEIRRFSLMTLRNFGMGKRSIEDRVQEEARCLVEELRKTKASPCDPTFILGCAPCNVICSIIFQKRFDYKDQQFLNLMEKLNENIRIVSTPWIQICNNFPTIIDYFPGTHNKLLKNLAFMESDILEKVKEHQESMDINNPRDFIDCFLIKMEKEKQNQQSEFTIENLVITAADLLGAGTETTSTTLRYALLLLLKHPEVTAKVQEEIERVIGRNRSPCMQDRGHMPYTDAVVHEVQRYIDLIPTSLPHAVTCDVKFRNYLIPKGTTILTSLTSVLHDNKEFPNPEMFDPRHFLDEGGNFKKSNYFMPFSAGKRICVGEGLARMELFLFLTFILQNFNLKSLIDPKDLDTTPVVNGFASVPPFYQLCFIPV

Cytochrome P450 2C9 = Cytochrome P450 2C9 (Homo sapiens, UniProt P11712); assay: Inhibition of human CYP2C9
Cytochrome P450 2C9, sequence (P11712 whole entry): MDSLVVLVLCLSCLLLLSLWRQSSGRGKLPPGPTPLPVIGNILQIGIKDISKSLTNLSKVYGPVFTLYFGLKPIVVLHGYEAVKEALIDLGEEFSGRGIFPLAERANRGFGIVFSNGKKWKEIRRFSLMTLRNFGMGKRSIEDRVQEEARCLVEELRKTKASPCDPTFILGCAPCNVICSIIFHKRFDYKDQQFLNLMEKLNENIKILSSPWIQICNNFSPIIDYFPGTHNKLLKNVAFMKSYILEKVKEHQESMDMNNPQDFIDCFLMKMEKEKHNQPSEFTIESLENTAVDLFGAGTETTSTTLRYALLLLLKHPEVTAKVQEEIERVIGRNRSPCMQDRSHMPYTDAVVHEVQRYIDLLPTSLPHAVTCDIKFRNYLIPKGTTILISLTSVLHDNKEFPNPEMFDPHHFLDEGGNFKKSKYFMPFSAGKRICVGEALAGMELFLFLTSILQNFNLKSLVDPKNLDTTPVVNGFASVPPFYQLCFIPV

Cytochrome P450 1A2 = target: T1, Cytochrome P450 1A2 (Homo sapiens, UniProt P05177); assay: Inhibition of human CYP1A2
T1 sequence (P05177 whole entry): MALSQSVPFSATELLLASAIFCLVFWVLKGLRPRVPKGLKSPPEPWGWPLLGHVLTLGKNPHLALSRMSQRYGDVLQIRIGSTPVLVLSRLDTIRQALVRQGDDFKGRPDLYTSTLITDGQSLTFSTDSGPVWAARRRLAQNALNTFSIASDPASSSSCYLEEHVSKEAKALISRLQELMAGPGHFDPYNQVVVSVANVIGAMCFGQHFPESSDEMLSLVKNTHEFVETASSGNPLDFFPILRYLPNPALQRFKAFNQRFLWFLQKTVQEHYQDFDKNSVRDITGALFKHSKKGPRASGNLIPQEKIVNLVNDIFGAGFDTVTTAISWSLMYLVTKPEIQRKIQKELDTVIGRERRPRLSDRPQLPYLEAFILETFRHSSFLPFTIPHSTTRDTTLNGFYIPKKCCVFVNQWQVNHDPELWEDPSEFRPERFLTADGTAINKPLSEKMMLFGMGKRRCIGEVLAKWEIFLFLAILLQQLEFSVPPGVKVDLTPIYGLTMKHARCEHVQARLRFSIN

Cytochrome P450 3A4 = Cytochrome P450 3A4 (Homo sapiens, UniProt P08684); assay: Inhibition of human CYP3A4-mediated midazolam 1'-hydroxylase activity
Cytochrome P450 3A4, sequence (P08684 whole entry): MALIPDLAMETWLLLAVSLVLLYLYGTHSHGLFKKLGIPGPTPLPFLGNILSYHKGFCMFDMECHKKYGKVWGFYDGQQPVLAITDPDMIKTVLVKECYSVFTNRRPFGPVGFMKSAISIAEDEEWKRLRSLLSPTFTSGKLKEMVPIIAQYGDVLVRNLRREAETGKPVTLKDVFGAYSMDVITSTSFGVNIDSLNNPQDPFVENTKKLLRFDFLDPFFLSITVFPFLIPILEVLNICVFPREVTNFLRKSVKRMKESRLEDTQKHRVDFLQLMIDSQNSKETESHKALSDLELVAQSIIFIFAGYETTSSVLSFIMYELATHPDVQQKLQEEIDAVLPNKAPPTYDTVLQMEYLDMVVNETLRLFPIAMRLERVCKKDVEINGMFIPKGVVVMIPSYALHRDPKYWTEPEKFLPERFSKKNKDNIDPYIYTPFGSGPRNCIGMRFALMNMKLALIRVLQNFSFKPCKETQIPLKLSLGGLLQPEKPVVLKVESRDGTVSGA

pEC50 [1]	pIC50 (Protease)	pIC50 (Cytochrome P450 2D6)	pIC50 (Cytochrome P450 2C19)	pIC50 (Cytochrome P450 2C9)	pIC50 (Cytochrome P450 1A2)	pIC50 (Cytochrome P450 3A4)	Compound
6.26	–	–	–	–	–	–	CCC[C@@H](CC[C@H](Cc1ccccc1)NC(=O)OCc1cncs1)NC(=O)[C@@H](NC(=O)N(C)Cc1csc(C(C)C)n1)C(C)C
< 4.52	5.06	–	–	–	–	–	CC(C)c1nc(CN(C)C(=O)N[C@H](C(=O)N[C@H](CCNNC(=O)OCc2cncs2)Cc2ccccc2)C(C)C)cs1
6.06	–	–	–	–	–	–	CC(C)c1nc(CN(C)C(=O)N[C@H](C(=O)N[C@H](CC[C@H](Cc2ccccc2)N(C)C(=O)OCc2cncs2)Cc2ccccc2)C(C)C)cs1
7.82	–	–	–	–	–	–	CC(C)c1nc(CN(C)C(=O)N[C@H](C(=O)N[C@@H](Cc2ccccc2)C[C@H](O)[C@H](Cc2ccccc2)NC(=O)OCc2cncs2)C(C)C)cs1 [RITONAVIR]
< 4.52	< 4.52	–	–	–	–	–	CC(C)c1nc(CN(C)C(=O)N[C@@H](CCN2CCOCC2)C(=O)N[C@H](CCN(Cc2ccccc2Cl)C(=O)OCc2cncs2)Cc2ccccc2)cs1
< 4.52	< 4.52	5.89	5.17	5.09	< 4.60	–	CC(C)c1nc(CN(C)C(=O)N[C@@H](CCN2CCOCC2)C(=O)N[C@H](CCN(Cc2ccccc2)C(=O)OCc2cncs2)Cc2ccccc2)cs1
5.05	–	–	–	–	–	5.78	CC(C)c1nc(CN(C)C(=O)N[C@H](C(=O)NC2CCN(C(=O)OCc3cncs3)CC2)C(C)C)cs1
< 4.52	–	–	–	–	–	6.51	CC(C)c1nc(CN(C)C(=O)N[C@H](C(=O)N[C@@H](Cc2ccccc2)[C@H]2OC(C)(C)O[C@@H]2[C@H](Cc2ccccc2)NC(=O)OCc2cncs2)C(C)C)cs1
< 4.52	–	–	–	–	–	–	CC(C)c1nc(CN(C)C(=O)N[C@H](C(=O)NCCNC(=O)OCc2cncs2)C(C)C)cs1
5.77	–	–	–	–	–	–	CCC[C@@H](CC[C@H](Cc1ccccc1)NC(=O)[C@@H](NC(=O)N(C)Cc1csc(C(C)C)n1)C(C)C)NC(=O)OCc1cncs1
< 4.52	4.68	–	–	–	–	6.52	CC(C)c1nc(CN(C)C(=O)N[C@H](C(=O)N(CCCN(Cc2ccccc2)C(=O)OCc2cncs2)Cc2ccccc2)C(C)C)cs1
4.96	–	–	–	–	–	6.82	CC(C)c1nc(CN(C)C(=O)N[C@H](C(=O)N[C@H](/C=C/[C@H](Cc2ccccc2)NC(=O)OCc2cncs2)Cc2ccccc2)C(C)C)cs1
5.78	–	–	–	–	–	–	CC(C)c1nc(CN(C)C(=O)N[C@H](C(=O)N[C@H](CC(=O)[C@H](Cc2ccccc2)NC(=O)OCc2cncs2)Cc2ccccc2)C(C)C)cs1
< 4.52	< 4.52	–	–	–	–	–	CC[C@@H](CC[C@H](CC)NC(=O)[C@@H](NC(=O)N(C)Cc1csc(C(C)C)n1)C(C)C)NC(=O)OCc1cncs1
< 4.52	< 4.52	–	–	–	–	–	CC(C)c1nc(CN(C)C(=O)N[C@@H](CCN2CCOCC2)C(=O)NC(Cc2ccccc2)CN(Cc2ccccc2)C(=O)OCc2cncs2)cs1 (stereo not given in full)
< 4.52	< 4.52	5.64	5.06	< 4.60	4.64	–	CC(C)c1nc(CN(C)C(=O)N[C@H](C(=O)N[C@@H](Cc2ccccc2)[C@H](Cc2ccccc2)NC(=O)OCc2cncs2)C(C)C)cs1
< 4.52	< 4.52	6.40	< 5.30	4.86	5.00	–	CC(C)c1nc(CN(C)C(=O)N[C@H](C(=O)N[C@@H](CC[C@@H](Cc2ccccc2)NC(=O)OCc2cncs2)Cc2ccccc2)C(C)C)cs1
< 4.52	–	–	–	–	–	–	CC(C)c1nc(CN(C)C(=O)N[C@H](C(=O)NCCCCNC(=O)OCc2cncs2)C(C)C)cs1
< 4.52	< 4.52	5.09	< 4.60	< 4.60	< 4.60	–	CC(C)CN(CC[C@H](Cc1ccccc1)NC(=O)OCc1cncs1)C(=O)[C@H](CCN1CCOCC1)NC(=O)N(C)Cc1csc(C(C)C)n1
6.42	7.52	–	–	–	–	–	CC(C)c1nc(CN(C)C(=O)N[C@H](C(=O)N[C@H](CCN(Cc2ccccc2)NC(=O)OCc2cncs2)Cc2ccccc2)C(C)C)cs1
< 4.52	–	–	–	–	–	–	CC(C)c1nc(CN(C)C(=O)N[C@H](C(=O)NCCCNC(=O)OCc2cncs2)C(C)C)cs1
< 4.52	–	–	–	–	–	5.85	CC(C)c1nc(CN(C)C(=O)N[C@H](C(=O)N2CCN(C(=O)OCc3cncs3)CC2)C(C)C)cs1
6.14	–	–	–	–	–	–	CC(C)c1nc(CN(C)C(=O)N[C@H](C(=O)N(C)[C@H](CC[C@H](Cc2ccccc2)NC(=O)OCc2cncs2)Cc2ccccc2)C(C)C)cs1
< 4.52	–	6.05	< 4.60	< 4.60	< 4.60	6.49	CC(C)c1nc(CN(C)C(=O)N[C@H](C(=O)N[C@H](CCN(Cc2ccccc2)C(=O)OCc2cncs2)Cc2ccccc2)C(C)C)cs1
< 4.52	< 4.52	–	–	–	–	–	CC(C)CN(CC[C@H](Cc1ccccc1)NC(=O)[C@H](CCN1CCOCC1)NC(=O)N(C)Cc1csc(C(C)C)n1)C(=O)OCc1cncs1
< 4.52	4.64	5.96	5.82	5.47	< 4.60	6.62	CC(C)c1nc(CN(C)C(=O)N[C@H](C(=O)N(CCCCN(Cc2ccccc2)C(=O)OCc2cncs2)Cc2ccccc2)C(C)C)cs1
6.54	8.30	5.54	5.03	5.17	< 4.60	–	CC(C)c1nc(CN(C)C(=O)N[C@H](C(=O)N[C@H](CC[C@H](Cc2ccccc2)NC(=O)OCc2cncs2)Cc2ccccc2)C(C)C)cs1
< 4.52	< 4.52	–	–	–	–	–	CC(C)c1nc(CN(C)C(=O)N[C@H](C(=O)N[C@@H](C)CC[C@H](C)NC(=O)OCc2cncs2)C(C)C)cs1
< 4.52	< 4.52	–	–	–	–	–	CC(C)c1nc(CN(C)C(=O)N[C@@H](CCN2CCOCC2)C(=O)N[C@H](CCN(Cc2ccc(Cl)cc2)C(=O)OCc2cncs2)Cc2ccccc2)cs1
5.40	–	–	–	–	–	–	CC(C)c1nc(CN(C)C(=O)N[C@H](C(=O)N2CCC(NC(=O)OCc3cncs3)CC2)C(C)C)cs1
